Laboratory results from patent publication US11702449B2, “Angiogenesis-inhibiting peptide and composition for preventing and treating angiogenesis-related disease comprising same as active ingredient” (AVIXGEN INC., priority 2015, dated 2023).
One block for each compound: values may come before it. Square brackets hold non-standard residues; d marks the D form. Peptide text beside a SMILES is read from it.

Key:
[1] = Peptide stability analysis in human serum (HPLC); type: in vitro ADME; conditions: for half-life at 1 mg/mL: pH 7.4, human serum
Description: (§1) Serum was separated by centrifugation (tabletop centrifuge, 3000 rpm, 20 min) of blood obtained from a healthy person. The serum was filtrated using a filter (Millipore) with a pore size of […], and then 50 μl of the human serum was mixed with 100 μg of RLYE (SEQ ID NO: 2), R(D)LYE (SEQ ID NO: 6), RLYE-NH2 (SEQ ID NO: 3) or Ac-RLYE (SEQ ID NO: 1) (100 μg/50 PBS, pH 7.4), and incubated by time at a constant temperature of 37° C. A peptide concentration of the sample was calculated by a peak area after the sample was separated by C18 reverse phase high-performance liquid chromatography (HPLC; Vydac protein and peptide C18 column, 0.1% trifluoroacetate in H2O for equilibration, and 0.1% trifluoroacetate in acetonitrile for elution).

[2] = tested on: human umbilical cord vascular endothelial cells (HUVECs); type: cell-based
Description: Migration analysis for human umbilical cord vascular endothelial cells (HUVECs) was carried out using a Transwell culture plate to which a polycarbonate filter (pore size: 8 μm) with a diameter of 6.5 mm was attached. A surface of the filter was coated with 10 μg of gelatin. Fresh M199 medium (1% fetal bovine serum) containing VEGF (10 ng/ml) was added into a lower compartment of the Transwell plate, HUVECs (1×10^6 cells/100 μl) which had reacted with 0.15 nM or 1.5 nM peptides at room temperature for 30 minutes were carefully transferred to an upper compartment of the plate. The resulting HUVECs were cultured in a CO2-constant temperature and humidity chamber for 4 hours, and the cells migrated under the Transwell filter were stained by H&E staining and quantified using an optical microscope.

[3] = Peptide stability in PBS; type: physicochemical; conditions: incubated in PBS at 37° C.
Description: as §1
To evaluate RLYE (SEQ ID NO: 2) stability, an RLYE peptide (SEQ ID NO: 2) was added to each of PBS and human serum, and incubated by time at a constant temperature of 37° C.

[4] = tested on: choroidal neovascularization; assay: Laser-induced choroidal neovascularization mouse model; type: in vivo
Description: To prepare a laser-induced choroidal neovascularization animal model, a Bruch membrane between a retinal layer and a choroidal layer was destroyed by irradiating the mouse retina with a diode laser at an intensity of 400 mW and a duration of 50 ms, and then choroidal neovascularization occurred over 14 days. The retinas of 6 week-old male C57BL/6 mice were irradiated with a laser under the above conditions, the formation of a lesion was confirmed through a safety inspection on day 10, and 1 μl of a 1.5 mM EYLR (SEQ ID NO: 5), RLYE (SEQ ID NO: 2) or Ac-RLYE (SEQ ID NO: 1) solution was intravitreally injected. Here, the same amount of saline was injected into the control group. After 4 days (14 days after the laser irradiation), an experiment for analyzing a therapeutic effect was carried out by extracting the eyeballs of the mice. The extracted eyeballs were fixed in 4% paraformaldehyde for 12 hours, and embedded in paraffin. Sections with a thickness of 4 μm were prepared from paraffin tissue, and subjected to H&E staining. Afterward, an image of a section with the largest choroidal neovascular membrane area was taken from each subject, and the area of the choroidal neovascular membrane was quantitatively analyzed using ImageJ program (NIH, Bethesda, Md., USA). In the saline-injected control group, the average of the choroidal neovascular areas was represented as 100%, and a therapeutic effect of each treatment group was analyzed. Meanwhile, 1 ml (1.25 mg) of FITC-dextran (250 kDa) was injected into the left ventricle one hour before extraction of the mouse eyeball to allow systemic perfusion. After extraction, the eyeball was fixed in 4% paraformaldehyde for 1 hour. Then, the cornea and the crystalline lens were cut off by scissors, the retina was carefully removed using forceps to prepare a complex of retina pigment epithelium/choroid/sclera tissues. The retina flat-mounted complex tissue was observed under a fluorescence microscope and photographed.

[5] = tested on: retinal vascular leakage; assay: Streptozotocin (STZ)-induced diabetic retinopathy mouse model, retinal vascular leakage; type: in vivo; conditions: STZ diabetic mice
Description: A freshly prepared STZ solution (100 mM) in a citrate buffer (100 mM, pH 4.5) was intraperitoneally injected at 150 mg/kg into the mice, and to prevent hypoglycemic shock, 10% sucrose was sufficiently provided. After two days, blood glucose was measured using an Accu-Chek Performa blood glucose meter (Roche Diagnostics GmbH, Germany), and when non-fasting blood glucose within 1 to 2 weeks was maintained at 300 mg/dl or more, the mice were used as diabetic animal models. The diabetes-induced mice were anesthetized with 2% avertin, and 1 μl of a 1.5 mM EYLR (SEQ ID NO: 5), RLYE (SEQ ID NO: 2) or Ac-RLYE (SEQ ID NO: 1) solution was intravitreally injected. Here, the same amount of PBS was injected into the control group. The peptide was injected, and after 24 hours, 1 ml (1.25 mg) of FITC-dextran (250 kDa) was injected into the left ventricle of each mouse to allow circulation for approximately 5 minutes. The mice were euthanized by cervical dislocation, and the eyeballs were extracted and fixed in 4% paraformaldehyde at room temperature for 1 hour. The retina was isolated from the fixed eyeball to prepare a retinal flat mount, and vascular leakage was observed under a confocal microscope. Meanwhile, the fluorescence of FITC-dextran leaked from retinal vessels was measured using Fluoview software.

[6] = tested on: HUVECs; assay: Tube formation of vascular endothelial cells on Matrigel (VEGF-induced); type: cell-based, human
Description: A degree of tube formation of HUVECs was determined using growth factor-reduced Matrigel. 250 μl of the Matrigel (10 mg protein/ml) was added into a 24-well plate to allow polymerization for 30 minutes at 37° C. HUVECs cultured in M199 (1% fetal bovine serum) medium for 6 hours were carefully transferred onto the Matrigel in the culture plate at a density of 2×10^5 cells/well, and VEGF (10 ng/ml) were cultured alone or with peptides (0.15 nM) at 37° C. for 20 hours. Meanwhile, peptides that were reacted in PBS or fresh human serum for 3 hours were also used. The degree of tube formation of HUVECs was visualized using an inverted phase-contrast microscope, and a length of the formed tube was measured and quantified by Image-Pro Plus version 4.5 (Media Cybernetics, San Diego, Calif.).

[7] = tested on: HCT116 xenograft; assay: Human colon cancer (HCT116) xenografted mouse model, tumor size and growth; type: in vivo
Description: Human colon cancer cells (HCT116, 1×10^7 cells/100 μl) were subcutaneously injected into the left side of a nude mouse (BALB/c nu/nu, 6 week old, male), and then when a tumor volume reached at least 50 to 70 mm^3 (approx. 7 days), physiological saline (negative control), RLYE (SEQ ID NO: 2) (1.0 mg/kg), R(D)LYE (SEQ ID NO: 6) (1.0 mg/kg) or Ac-RLYE (SEQ ID NO: 1) (1.0 mg/kg; abnormal, experimental group) was intraperitoneally injected once a day. A VEGF neutralizing antibody, bevacizumab, was intraperitoneally injected at 2 mg/kg twice a week (positive control). A tumor size was two-dimensionally measured using calipers. A tumor volume (mm^3) was calculated by the formula: width^2×length×0.52.

[8] = tested on: tumor vessels of HCT116 xenograft; assay: Measurement of tumor angiogenesis (FITC-isolectin B4 staining); type: in vivo, mouse; conditions: FITC-isolectin B4 staining of tumor tissue
Description: Tumor tissue was fixed with 10% formalin, and inserted into paraffin. A slide was prepared using a tumor tissue section, immersed in xylene to remove paraffin, and rehydrated by stepwise treatment with 100%, 95%, 80%, and 70% ethanol. Afterward, the slide was washed with deionized water several times at room temperature. To inhibit the intracellular activity of a peroxidase, the tissue section was reacted in 0.3% hydrogen peroxide-containing methanol for 15 minutes, and washed with PBS three times. The tissue section was reacted in 3% goat serum-containing PBS for 2 hours at room temperature, and reacted with FITC-isolectin B4 ([…]; Vector Laboratories) for 1 hour. The tissue section was washed with PBS three times and then a permanent slide was prepared using a cryo-mount solution (OCT mouting medium, Tissue Tek, Sakura Finetek), and then tumor vessels were visualized using a fluorescence microscope.

[9] = 1 μl of 1.5 mM solution intravitreal, H&E area analysis

half-life at 1 mg/mL ([1]; 37° C.): 1.3 h
Compound: CC(C)C[C@H](NC(=O)[C@@H](N)CCCNC(=N)N)C(=O)N[C@@H](Cc1ccc(O)cc1)C(=O)N[C@@H](CCC(=O)O)C(N)=O [RLYE-NH2] (H-RLYE-NH2; N-terminus assumed)
IC50 [2]: 0.11 nM

degradation in PBS [3]: did not occur
RLYE degradation induced by albumin ([1]; albumin added, 37° C.): did not induce
RLYE degradation by human serum with bestatin ([1]; aminopeptidase B inhibitor bestatin added): effectively inhibited
half-life at 1 mg/mL ([1]; 37° C.): 1.2 h
Compound: CC(C)C[C@H](NC(=O)[C@@H](N)CCCNC(=N)N)C(=O)N[C@@H](Cc1ccc(O)cc1)C(=O)N[C@@H](CCC(=O)O)C(=O)O [RLYE, Arg-Leu-Tyr-Glu, reference compound] (H-RLYE-OH; N-terminus and C-terminus assumed)
IC50 [2]: 0.08 nM

half-life at 1 mg/mL ([1]; 37° C.): 7 h
Compound: CC(C)C[C@H](NC(=O)[C@H](N)CCCNC(=N)N)C(=O)N[C@@H](Cc1ccc(O)cc1)C(=O)N[C@@H](CCC(=O)O)C(=O)O [R(D)LYE] (H-[dR]LYE-OH; N-terminus and C-terminus assumed)
IC50 [2]: 0.06 nM

More lines, now with the values behind:

Compound: CC(=O)N[C@@H](CCCNC(=N)N)C(=O)N[C@@H](CC(C)C)C(=O)N[C@@H](Cc1ccc(O)cc1)C(=O)N[C@@H](CCC(=O)O)C(=O)O [Ac-RLYE] (Ac-RLYE-OH; C-terminus assumed)
choroidal neovascularization inhibition compared with RLYE [4, 9]: highly effective compared to RLYE
effect on choroidal neovascularization [4, 9]: effectively reduced
choroidal neovascularization inhibition compared with RLYE, retinal flat mount ([4]; FITC-dextran, retinal flat mount technique): higher effect of inhibiting choroidal neovascularization than RLYE
effect on retinal vascular leakage ([5]; 1 μl of 1.5 mM solution intravitreal, 24 hours): effectively inhibited
inhibitory effect on retinal vascular leakage compared with RLYE ([5]; intravitreal): higher inhibitory effect on blood vascular leakage than RLYE
half-life at 1 mg/mL ([1]; 37° C.): 8.8 h
inhibition of VEGF-induced tube formation ([6]; peptides pretreated with PBS for 3 hours): effectively inhibited
inhibition of VEGF-induced tube formation ([6]; peptides pretreated with human serum for three hours): effectively inhibited
anticancer effect compared with RLYE ([7]; 1.0 mg/kg/day intraperitoneal, HCT116 nude mouse): higher than that of RLYE
effect on size and growth of tumor ([7]; 1.0 mg/kg/day intraperitoneal, once a day, HCT116 nude mouse): inhibited the size and growth of a tumor
anticancer effect compared with bevacizumab ([7]; peptide 1.0 mg/kg/day i.p., bevacizumab 2.0 mg/kg twice a week): a little lower than that of the positive control bevacizumab
IC50 [2]: 0.05 nM
effect of inhibiting cancer angiogenesis compared with RLYE [8]: higher than that of RLYE

Compound: CC(=O)N[C@@H](CCCNC(=N)N)C(=O)N[C@@H](CC(C)C)C(=O)N[C@@H](Cc1ccc(O)cc1)C(=O)N[C@@H](CCC(=O)O)C(N)=O [Ac-RLYE-NH2] (Ac-RLYE-NH2)
IC50 [2]: 80.2 nM

Compound: EYLR: reverse-sequence of the RLYE peptide [reference compound]
effect on choroidal neovascularization [4, 9]: had no change
